The source of these data is ChEMBL document CHEMBL1131723, “Synthesis and structure-activity relationship of novel glycylcycline derivatives leading to the discovery of GAR-936” (1999).

Converted amounts (≈) assume the structure as drawn. Some results are limits rather than exact numbers.

Assay type in all cases: functional
Experiment [1] relates to Enterococcus. As to the kind of experiment: In vitro antibacterial activity against Enterococcus ATCC 29212.
The test system of experiment [2] is Escherichia coli. Briefly: In vitro antibacterial activity against Escherichia coli J3272 Tet C.
The subject of experiment [3] is Escherichia coli. Briefly: In vitro antibacterial activity against Escherichia coli J3272 Tet D.
Experiment [4] has as its system Escherichia coli. Briefly: In vitro antibacterial activity against Escherichia coli PRP1 Tet A.
Experiment [5] concerns Escherichia coli. Briefly: In vitro antibacterial activity against Escherichia coli UBMS 88-1 Tet B.
The subject of experiment [6] is Escherichia coli. Briefly: In vitro antibacterial activity against Escherichia coli UBMS 90-5 sensitive.
In experiment [7] the test system is Staphylococcus aureus. Briefly: In vitro antibacterial activity against Staphylococcus aureus Smith sensitive.
The subject of experiment [8] is Staphylococcus aureus. Briefly: In vitro antibacterial activity against Staphylococcus aureus UBMS 90-1 Tet M.
Experiment [9] concerns Staphylococcus aureus. Briefly: In vitro antibacterial activity against Staphylococcus aureus UBMS 90-3 sensitive.
The test system of experiment [10] is Staphylococcus aureus. Briefly: In vitro antibacterial activity against Staphylococcus aureus UBMS 88-7 Tet K.
Experiment [11] deals with Escherichia coli. Briefly: In vitro antibacterial activity against Escherichia coli UBMS 90-4 Tet M.

For orientation: MIC means the smallest concentration in the dilution series that meets the test's criterion for growth inhibition. Regarding `CN(C)c1cc(NC(=O)CBr)c(O)c2c1CC1CC3[C@H](N(C)C)C(=O)C(C(N)=O)=C(O)[C@@]3(O)C(=O)C1=C2O` (stereo partly specified), the minimum inhibitory concentration (MIC) in [1] was 0.5 µg/mL (≈ 0.843 µM); in experiment [2] it was more than 32 µg/mL; in [3], 32 µg/mL (≈ 53.9 µM); in [4] it was more than 32 µg/mL; in [5], more than 32 µg/mL; in experiment [6], 16 µg/mL (≈ 27 µM). In addition, the minimal inhibitory concentration (MIC) in [7] stood at 0.5 µg/mL (≈ 0.843 µM); in experiment [8], 1 µg/mL (≈ 1.69 µM); in [9], 0.5 µg/mL (≈ 0.843 µM); in experiment [10], 2 µg/mL (≈ 3.37 µM).
As for `CN(C)c1cc(NC(=O)CN2CCCC2)c(O)c2c1CC1CC3[C@H](N(C)C)C(=O)C(C(N)=O)=C(O)[C@@]3(O)C(=O)C1=C2O` (stereo partly specified), the MIC stood at 0.12 µg/mL (≈ 0.206 µM) in [1]; 0.25 µg/mL (≈ 0.428 µM) in experiment [2]; 0.12 µg/mL (≈ 0.206 µM) in experiment [3]; 0.5 µg/mL (≈ 0.857 µM) in [4]; 0.25 µg/mL (≈ 0.428 µM) in experiment [5]; 0.25 µg/mL (≈ 0.428 µM) in experiment [11]. The MIC in experiment [6] worked out at 0.25 µg/mL (≈ 0.428 µM); in [7] it was 0.12 µg/mL (≈ 0.206 µM); in [8] it was 0.12 µg/mL (≈ 0.206 µM); in experiment [9], 0.12 µg/mL (≈ 0.206 µM); in [10] it was 0.5 µg/mL (≈ 0.857 µM).
`CNCC(=O)Nc1cc(N(C)C)c2c(c1O)C(=O)C1=C(O)[C@]3(O)C(O)=C(C(N)=O)C(=O)[C@@H](N(C)C)C3CC1C2` (stereo partly specified): the MIC in experiment [1] was 0.5 µg/mL (≈ 0.92 µM); in experiment [2], 8 µg/mL (≈ 14.7 µM); in experiment [3] it was 0.5 µg/mL (≈ 0.92 µM); in [4], 16 µg/mL (≈ 29.4 µM); in experiment [5], 1 µg/mL (≈ 1.84 µM); in experiment [6] it was 1 µg/mL (≈ 1.84 µM). The MIC worked out at 0.5 µg/mL (≈ 0.92 µM) in experiment [7], 1 µg/mL (≈ 1.84 µM) in [8], 0.5 µg/mL (≈ 0.92 µM) in experiment [9] and 16 µg/mL (≈ 29.4 µM) in experiment [10].
Consider `CN(C)CC(=O)Nc1cc(N(C)C)c2c(c1O)C(=O)C1=C(O)[C@]3(O)C(O)=C(C(N)=O)C(=O)[C@@H](N(C)C)C3CC1C2` (stereo partly specified), for which the MIC in experiment [1] turned out to be 0.06 µg/mL (≈ 0.108 µM); in experiment [2], 1 µg/mL (≈ 1.79 µM); in [3], 0.12 µg/mL (≈ 0.215 µM); in experiment [4], 1 µg/mL (≈ 1.79 µM); in experiment [5], 0.25 µg/mL (≈ 0.448 µM); in experiment [11], 0.25 µg/mL (≈ 0.448 µM). The MIC was 0.25 µg/mL (≈ 0.448 µM) in [6]; 0.06 µg/mL (≈ 0.108 µM) in [7]; 0.25 µg/mL (≈ 0.448 µM) in [8]; 0.03 µg/mL (≈ 0.0538 µM) in experiment [9]; 0.25 µg/mL (≈ 0.448 µM) in experiment [10].
For `CN(C)c1cc(NC(=O)CN2CCOCC2)c(O)c2c1CC1CC3[C@H](N(C)C)C(=O)C(C(N)=O)=C(O)[C@@]3(O)C(=O)C1=C2O` (stereo partly specified), the minimal inhibitory concentration (MIC) in [1] is 2 µg/mL (≈ 3.34 µM); in experiment [2] it was more than 32 µg/mL; in [3] it was 32 µg/mL (≈ 53.4 µM); in experiment [4] it was more than 32 µg/mL; in [5], more than 32 µg/mL; in [6] it was more than 32 µg/mL. Moreover, the minimum inhibitory concentration (MIC) in experiment [7] came out at 2 µg/mL (≈ 3.34 µM); in experiment [8], 4 µg/mL (≈ 6.67 µM); in [9], 2 µg/mL (≈ 3.34 µM); in experiment [10], 32 µg/mL (≈ 53.4 µM).
`CN(C)c1cc(NC(=O)Cn2ccnc2)c(O)c2c1CC1CC3[C@H](N(C)C)C(=O)C(C(N)=O)=C(O)[C@@]3(O)C(=O)C1=C2O` (stereo partly specified): the MIC was 4 µg/mL (≈ 6.89 µM) in experiment [1]; more than 32 µg/mL in experiment [2]; 32 µg/mL (≈ 55.1 µM) in experiment [3]; more than 32 µg/mL in experiment [4]; more than 32 µg/mL in [5]; more than 32 µg/mL in experiment [11]. The minimal inhibitory concentration (MIC) in [6] is more than 32 µg/mL; in [7], 4 µg/mL (≈ 6.89 µM); in experiment [8] it was 32 µg/mL (≈ 55.1 µM); in experiment [9], 4 µg/mL (≈ 6.89 µM); in experiment [10], 32 µg/mL (≈ 55.1 µM).
`CN(C)c1cc(NC(=O)CN2CCC2)c(O)c2c1CC1CC3[C@H](N(C)C)C(=O)C(C(N)=O)=C(O)[C@@]3(O)C(=O)C1=C2O` (stereo partly specified): the MIC came out at 0.25 µg/mL (≈ 0.439 µM) in [1]; 0.5 µg/mL (≈ 0.878 µM) in experiment [2]; 0.12 µg/mL (≈ 0.211 µM) in experiment [3]; 1 µg/mL (≈ 1.76 µM) in experiment [4]; 0.5 µg/mL (≈ 0.878 µM) in experiment [5]; 0.25 µg/mL (≈ 0.439 µM) in experiment [11]. Further, the MIC in experiment [6] came to 0.25 µg/mL (≈ 0.439 µM); in experiment [7], 0.25 µg/mL (≈ 0.439 µM); in experiment [8], 0.25 µg/mL (≈ 0.439 µM); in experiment [9] it was 0.12 µg/mL (≈ 0.211 µM); in experiment [10] it was 2 µg/mL (≈ 3.51 µM).
As to `CN(C)c1cc(NC(=O)CNC2CCCC2)c(O)c2c1CC1CC3[C@H](N(C)C)C(=O)C(C(N)=O)=C(O)[C@@]3(O)C(=O)C1=C2O` (stereo partly specified), the MIC in experiment [1] came to 0.12 µg/mL (≈ 0.201 µM); in [2] it was 0.25 µg/mL (≈ 0.418 µM); in [3], 0.12 µg/mL (≈ 0.201 µM); in experiment [4], 1 µg/mL (≈ 1.67 µM); in experiment [5] it was 0.25 µg/mL (≈ 0.418 µM); in experiment [11] it was 0.25 µg/mL (≈ 0.418 µM). Further, the MIC in [6] is 0.25 µg/mL (≈ 0.418 µM); in experiment [7], 0.25 µg/mL (≈ 0.418 µM); in experiment [8], 0.25 µg/mL (≈ 0.418 µM); in experiment [9], 0.12 µg/mL (≈ 0.201 µM); in [10], 2 µg/mL (≈ 3.35 µM).
As for `CCCNCC(=O)Nc1cc(N(C)C)c2c(c1O)C(=O)C1=C(O)[C@]3(O)C(O)=C(C(N)=O)C(=O)[C@@H](N(C)C)C3CC1C2` (stereo partly specified), the minimal inhibitory concentration (MIC) in experiment [1] turned out to be 0.25 µg/mL (≈ 0.437 µM); in experiment [2], 0.5 µg/mL (≈ 0.875 µM); in experiment [3], 0.12 µg/mL (≈ 0.21 µM); in experiment [4] it was 2 µg/mL (≈ 3.5 µM); in [5] it was 0.5 µg/mL (≈ 0.875 µM); in experiment [11] it was 0.25 µg/mL (≈ 0.437 µM). Moreover, the MIC in experiment [6] worked out at 0.5 µg/mL (≈ 0.875 µM); in [7] it was 0.25 µg/mL (≈ 0.437 µM); in experiment [8], 0.5 µg/mL (≈ 0.875 µM); in experiment [9] it was 0.25 µg/mL (≈ 0.437 µM); in [10], 2 µg/mL (≈ 3.5 µM).
